According to US6951833B2, “Anti-microbial compositions” (priority 2002, dated 2005):

Assays:
LD50 in a mouse = conditions: in vivo, read-out: dosage reaching the LD50 limit
Source text: The upper limit of the amount of the composition of the present invention will depend upon how the extract is made and may be determined by the levels at which toxicity or irritation becomes an issue. Thus, for surface cleansers, very high concentrations can be employed, whereas for skin cleansers, oral care or other products used for direct contact with humans or animals, lower concentrations will be desirable to avoid irritation or toxicity issues. […] Use of the term, “safe amount” herein refers to concentrations which are sufficiently below the above-mentioned amounts to avoid toxic effects in humans or animals.

[1] = system: a variety of common bacteria; experiment: bactericidal amounts for common bacteria; assay type: cell-based
Source text: The composition of the present invention is preferably used in amounts that deliver at least about 2 ppm of anemonin, protoanemonin, diterpenoid alkaloids, or combinations thereof, more preferably, at least about 5 ppm of anemonin, protoanemonin, diterpenoid alkaloids, or combinations thereof, and most preferably at least about 15 ppm of anemonin, protoanemonin, diterpenoid alkaloids, or combinations thereof.

| Structure (SMILES) | LD50 (LD50 in a mouse) | amount that is generally bactericidal [1] |
| --- | --- | --- |
| O=C1C=CC2(CCC23C=CC(=O)O3)O1 (stereo not drawn) [anemonin] | 150 mg/kg |  |
| C=C1C=CC(=O)O1 [protoanemonin] | 190 mg/kg | 25-200 ppm |
